In ChEMBL document CHEMBL4002549, “Synthesis and evaluation of halogenated 12N-sulfonyl matrinic butanes as potential anti-coxsackievirus agents” (Eur J Med Chem, 2017):

Assays:
[1] = Cytotoxicity against African green monkey Vero cells assessed as cytopathic effect after 48 hrs; format: cell-based; conditions: chlorocebus sabaeus, read-out: TC50
[2] = Selectivity index, ratio of TC50 for African green monkey Vero cells to IC50 for Coxsackievirus B3 Nancy infected in African green monkey Vero cells; format: toxicity; conditions: read-out: Selectivity Index
Coxsackievirus B3 = assay: Antiviral activity against Coxsackievirus B3 Nancy infected in African green monkey Vero cells assessed as inhibition of virus-induced cytopathic effect; format: functional; conditions: Enterovirus B
[3] = Acute toxicity in po dosed Kunming mouse measured for 7 days; format: organism-based; conditions: in vivo
[4] = Half life in Sprague-Dawley rat at 25 mg/kg, po; format: ADME, organism-based; conditions: in vivo
[5] = Tmax in Sprague-Dawley rat at 25 mg/kg, po; format: ADME, organism-based; conditions: in vivo
[6] = Antiviral activity against Coxsackievirus B2 Ohio-1 infected in African green monkey Vero cells assessed as inhibition of virus-induced cytopathic effect; format: functional, Coxsackievirus B2 (strain Ohio-1); conditions: Enterovirus B
[7] = AUC (0 to t) in Sprague-Dawley rat at 25 mg/kg, po; format: ADME, organism-based; conditions: in vivo
[8] = Selectivity index, ratio of TC50 for African green monkey Vero cells to IC50 for Coxsackievirus B1 Conn 5 infected in African green monkey Vero cells; format: toxicity; conditions: read-out: Selectivity Index
Coxsackievirus B4 = assay: Antiviral activity against Coxsackievirus B4 JVB infected in African green monkey Vero cells assessed as inhibition of virus-induced cytopathic effect; format: functional; conditions: Enterovirus B
[9] = AUC (0 to infinity) in Sprague-Dawley rat at 25 mg/kg, po; format: ADME, organism-based; parameters: dose 25 mg/kg, route oral, time infinity; conditions: in vivo
[10] = Cmax in Sprague-Dawley rat at 25 mg/kg, po; format: ADME, organism-based; parameters: dose 25 mg/kg, route oral; conditions: in vivo
[11] = MRT in Sprague-Dawley rat at 25 mg/kg, po; format: ADME, organism-based; conditions: in vivo
[12] = Selectivity index, ratio of TC50 for African green monkey Vero cells to IC50 for Coxsackievirus B5 Faulkner infected in African green monkey Vero cells; format: toxicity; conditions: read-out: Selectivity Index
Coxsackievirus B1 = assay: Antiviral activity against Coxsackievirus B1 Conn 5 infected in African green monkey Vero cells assessed as inhibition of virus-induced cytopathic effect; format: functional; conditions: Enterovirus B, Conn 5, Vero
Coxsackievirus B5 = assay: Antiviral activity against Coxsackievirus B5 Faulkner infected in African green monkey Vero cells assessed as inhibition of virus-induced cytopathic effect; format: functional; conditions: Enterovirus B
[13] = Selectivity index, ratio of TC50 for African green monkey Vero cells to IC50 for Coxsackievirus B4 JVB infected in African green monkey Vero cells; format: toxicity; conditions: read-out: Selectivity Index
[14] = Antiviral activity against Coxsackievirus B6 Schmitt infected in African green monkey Vero cells assessed as inhibition of virus-induced cytopathic effect; format: functional, Coxsackievirus B6 (strain Schmitt); conditions: Enterovirus B
[15] = Selectivity index, ratio of TC50 for African green monkey Vero cells to IC50 for Coxsackievirus B6 Schmitt infected in African green monkey Vero cells; format: toxicity; conditions: read-out: Selectivity Index
[16] = Selectivity index, ratio of TC50 for African green monkey Vero cells to IC50 for Coxsackievirus B2 Ohio-1 infected in African green monkey Vero cells; format: toxicity; conditions: read-out: Selectivity Index

SMILES | CC50 at 48 h [1] [µM] | selectivity ratio [2] | IC50 (Coxsackievirus B3) [µM] | also measured
C1CCN2C[C@@H]3CCCN4CCC[C@@H]([C@H]34)[C@H]2C1 | 652 | 11.4 | 57 | –
NC(=O)c1cccc(S(=O)(=O)N2C[C@@H]3CCCN4CCC[C@@H]([C@H]34)[C@H]2CCO)c1 | > 491 | > 53.1 | 9.25 | –
N#Cc1ccccc1S(=O)(=O)N1C[C@@H]2CCCN3CCC[C@@H]([C@H]23)[C@H]1CCCl | > 452 | > 244 | 1.85 | LD50 at 168 h [3]: 348 mg/kg
CCCC[C@@H]1[C@H]2CCCN3CCC[C@@H](CN1S(=O)(=O)c1ccccc1C#N)[C@@H]23 | 116 to 200 | 111 | 1.04 | half-life [4]: 2.48 h; Tmax [5]: 1.33 h; IC50 [6]: 1.65 µM; AUC(0-t) [7]: 30.9 µM·h; selectivity ratio [8]: > 132; IC50 (Coxsackievirus B4): 5.14 µM; AUC(0-inf) [9]: 31.8 µM·h; Cmax [10]: 3.07 µM; MRT [11]: 4.05 h; LD50 at 168 h [3]: > 500 mg/kg; selectivity ratio [12]: > 290; IC50 (Coxsackievirus B1): 1.52 µM; IC50 (Coxsackievirus B5): 0.69 µM; selectivity ratio [13]: > 38.9; IC50 [14]: 2.06 µM; selectivity ratio [15]: 75.3; selectivity ratio [16]: > 121
CCCC[C@@H]1[C@H]2CCCN3CCC[C@@H](CN1S(=O)(=O)c1ccc(C(=O)OC)cc1)[C@@H]23 | 367 | 25.1 | 14.2 | –
N#Cc1ccccc1S(=O)(=O)N1C[C@@H]2CCCN3CCC[C@@H]([C@H]23)[C@H]1CCCCCl | 204 | 51.2 | 3.99 | LD50 at 168 h [3]: 348 mg/kg
O=S(=O)(c1ccccc1/C=N/O)N1C[C@@H]2CCCN3CCC[C@@H]([C@H]23)[C@H]1CCO | > 491 | > 565 | 0.87 | LD50 at 168 h [3]: < 500 mg/kg
CC(=O)c1ccc(S(=O)(=O)N2C[C@@H]3CCCN4CCC[C@@H]([C@H]34)[C@H]2CCCl)cc1 | 251 | 20.5 | 12.2 | –
CCCC[C@@H]1[C@H]2CCCN3CCC[C@@H](CN1S(=O)(=O)c1ccccc1C(=O)OC)[C@@H]23 | 320 | 44.1 | 7.24 | –
O=S(=O)(c1cccc(C(F)(F)F)c1)N1C[C@@H]2CCCN3CCC[C@@H]([C@H]23)[C@H]1CCCCF | 100 | 122 | 0.82 | –
O=S(=O)(c1ccc(C(F)(F)F)cc1)N1C[C@@H]2CCCN3CCC[C@@H]([C@H]23)[C@H]1CCCCF | 144 | 121 | 1.19 | –
N#Cc1cccc(S(=O)(=O)N2C[C@@H]3CCCN4CCC[C@@H]([C@H]34)[C@H]2CCF)c1 | > 512 | > 6.84 | 74.8 | –
CCCC[C@@H]1[C@H]2CCCN3CCC[C@@H](CN1S(=O)(=O)c1ccccc1[N+](=O)[O-])[C@@H]23 | 228 | 92.5 | 2.47 | –
N#Cc1cccc(S(=O)(=O)N2C[C@@H]3CCCN4CCC[C@@H]([C@H]34)[C@H]2CCCl)c1 | 313 | 97 | 3.23 | LD50 at 168 h [3]: 348 mg/kg
CCCC[C@@H]1[C@H]2CCCN3CCC[C@@H](CN1S(=O)(=O)c1ccc(N)cc1)[C@@H]23 | 82.9 | 3.6 | 23 | –
N#Cc1cccc(S(=O)(=O)N2C[C@@H]3CCCN4CCC[C@@H]([C@H]34)[C@H]2CCCCF)c1 | 276 | 61.4 | 4.49 | LD50 at 168 h [3]: 654 mg/kg
O=S(=O)(c1ccc(C(F)(F)F)cc1)N1C[C@@H]2CCCN3CCC[C@@H]([C@H]23)[C@H]1CCF | 358 | 27.6 | 13 | –
CCCC[C@@H]1[C@H]2CCCN3CCC[C@@H](CN1S(=O)(=O)c1cccc(C#N)c1)[C@@H]23 | 96.2 | 84.3 | 1.14 | –
CCCC[C@@H]1[C@H]2CCCN3CCC[C@@H](CN1S(=O)(=O)c1cccc(C(=O)OC)c1)[C@@H]23 | 73.7 | 50.9 | 1.45 | –
N#Cc1cccc(S(=O)(=O)N2C[C@@H]3CCCN4CCC[C@@H]([C@H]34)[C@H]2CCCCCl)c1 | 204 | 24.3 | 8.39 | –
NC(=O)c1ccc(S(=O)(=O)N2C[C@@H]3CCCN4CCC[C@@H]([C@H]34)[C@H]2CCO)cc1 | > 491 | > 30.7 | 16 | –
N#Cc1ccccc1S(=O)(=O)N1C[C@@H]2CCCN3CCC[C@@H]([C@H]23)[C@H]1CCCCF | 230 | 13 | 17.7 | LD50 at 168 h [3]: 560 mg/kg
CCCC[C@@H]1[C@H]2CCCN3CCC[C@@H](CN1S(=O)(=O)c1ccc(OC)cc1)[C@@H]23 | 96.2 | 16.6 | 5.8 | –
CCCC[C@@H]1[C@H]2CCCN3CCC[C@@H](CN1S(=O)(=O)c1ccc(NC(C)=O)cc1)[C@@H]23 | 96.2 | 38.9 | 2.47 | –
O=S(=O)(c1ccccc1C(F)(F)F)N1C[C@@H]2CCCN3CCC[C@@H]([C@H]23)[C@H]1CCCCF | 229 | 13.6 | 16.8 | –
N#Cc1ccc(S(=O)(=O)N2C[C@@H]3CCCN4CCC[C@@H]([C@H]34)[C@H]2CCCCF)cc1 | 276 | 36.7 | 7.51 | LD50 at 168 h [3]: 353 mg/kg
NC(=O)c1ncn([C@@H]2O[C@H](CO)[C@@H](O)[C@H]2O)n1 [RIBAVIRIN] | 6360 to 8200 | 11.8 to 16.8 | 379 to 695 | IC50 [6]: > 500 µM; IC50 (Coxsackievirus B4): > 500 µM; IC50 (Coxsackievirus B1): 2380 µM; IC50 (Coxsackievirus B5): 3320 µM; IC50 [14]: 2090 µM
